Legend:
[1] = test system: hypovolemic cardiac arrest model; test: Return of spontaneous circulation (ROSC) in a hypovolemic cardiac arrest model; type: in vivo, Yorkshire swine; conditions: for time to ROSC: 40 units, mean ± standard deviation, SD; for Number achieving ROSC / Number not achieving ROSC: 40 units + CPR + defibrillation, up to 20 min
Source text: (§1) The study was a prospective, between-subjects, experimental design. The Institutional Animal Care and Use Committee (IACUC) approved the research protocol, and the animals received care in compliance with the Animal Welfare Act. Twenty-eight Yorkshire swine were randomly assigned by a computer generated random number program to one of four groups: IV + defibrillation (n=7), IO tibia + defibrillation (n=7), CPR + defibrillation (n=7), and a control group that received just CPR (n=7). Two additional swine were added in the each of the IV and IO groups for model development. These two swine meet the criteria for inclusion in the study, and no changes were necessary in the protocol. Therefore, the pigs were included in both groups to make a total of eight in both the tibial IO and IV groups. However, one pig in the IO group was ill and was deleted from the study making a total of seven in that group.
(§2) In addition, their blood volume is the same as humans: 70ml per kg of body weight.[18],[19] To avoid any variability in subjects, we purchased the swine from the same vendor and acquired pigs that were approximately the same size. Male swine were used to avoid any potential hormonal effects. Subjects weighing between 60 to 80kg were used as this range represents the average weight of an adult, human.[20] […] All subjects received no food after midnight the evening before the study but were allowed fluids as desired until the experiment
(§3) Each subject received pre-emptive analgesia with Telazol (4–8mg/kg). They were then sedated, anesthetized, intubated, and placed on mechanical ventilation. A standard Narkomed® anesthesia machine (Dräger, Telford, PA) was used to deliver isoflurane at a maintenance dose (0.5–2%) and ventilation at 8–10mL/kg at 10–14 breaths per minute. A peripheral IV was started on all subjects using an 18- or 20-gauge catheter in the auricular vein. […] Hemodynamics were evaluated continuously that included the following: electrocardiogram, arterial blood pressure via a left carotid artery catheter, mean arterial pressure, oxygen saturation, end-tidal carbon dioxide, and temperature. A forced-air warming blanket was used to sustain rectal temperature greater than 36 degrees Celsius. A Vigileo™ (Edwards Lifesciences, Irvine, CA) was used to obtain cardiac output and stroke volume measurements via the arterial line. The femoral artery was cannulated for the collection of blood samples and for the achievement of controlled hemorrhage.
(§4) For swine in the tibial IO group, we inserted an EZ-IO® device (Vidacare, San Antonio, TX) in the proximal, medial tibia. Placement was confirmed by aspiration of blood and easy irrigation with 10mL of 0.9% normal saline (NS). Patency was maintained by administering Lactated Ringer’s solution with a pressure bag at 300mmHg. Subjects were allowed to stabilize for 15 minutes; we then exsanguinated 31% of their blood volume from the femoral artery catheter into a canister. This represented a Class III hemorrhage. Hemorrhage was accomplished by allowing blood to drain by gravity over approximately 15 minutes. To ensure the amount exsanguinated was correct, the investigators used a scale that was accurate and precise within 0.5%.
(§5) In response to hypovolemic shock in accordance with Tactical Combat Casualty Care guidelines, we administered 500mL of 5% albumin to all subjects over 10 minutes.[22] Five minutes after the administration of albumin, the investigators placed the pigs in cardiac arrest, defined as a nonperfusing arrhythmia. […] The needles were attached to alligator clamps. The clamps were attached to three 9-volt batteries that were connected in a series to deliver an electrical current, thereby inducing nonperfusing ventricular fibrillation. We were able to establish ventricular fibrillation usually within 10 seconds. In some cases, we had to reposition the needles resulting in 100% being placed into ventricular fibrillation.
(§6) The pigs were allowed to remain in arrest for two minutes. […]

[2] = Vasopressin concentration in blood samples (HPLC-MS/MS) after tibial IO or IV administration in a hypovolemic cardiac arrest model; type: in vivo, Yorkshire swine; conditions: 40 units; for Cmax / Tmax / level at 1 min: Yorkshire, serum; for Cmax / Tmax: pig, mean ± standard deviation; for Cmax: during CPR, male swine 60-80 kg, 31% blood volume hemorrhage, ventricular fibrillation, femoral artery samples 0.5-4 min, HPLC-MS/MS; for Tmax / level at 1 min: male; for Tmax: SD; for level at 1 min: 60 seconds after injection, mean ± standard error, SEM
Source text: as §1, §2, §3, §4, §5, §6

With `NC(=O)CC[C@@H]1NC(=O)[C@H](Cc2ccccc2)NC(=O)[C@H](Cc2ccc(O)cc2)NC(=O)[C@@H](N)CSSC[C@@H](C(=O)N2CCC[C@H]2C(=O)N[C@@H](CCCN=C(N)N)C(=O)NCC(N)=O)NC(=O)[C@H](CC(N)=O)NC1=O` [vasopressin] the “time to ROSC” value ([1]; IO group (line "IO vs. CPR + defibrillation")) was 493 ± 226 s, the “Odds of ROSC” value ([1]; IO vs. CPR + defibrillation) was 15 and the “Odds of ROSC” value ([1]; IO vs. CPR only) was 65. The “time to ROSC” value ([1]; IV group (line "IV vs. IO")) was 559 ± 231 s, the “Odds of ROSC” value ([1]; IV vs. CPR + defibrillation) was 17.5 and the “Odds of ROSC” value ([1]; IV vs. CPR only) was 75. The “Number achieving ROSC” value ([1]; IV, N=8) was 7, the “Number not achieving ROSC” value ([1]; IV, N=8) was 1 and the “Number achieving ROSC” value ([1]; tibial IO, N=7) was 6. The “Number not achieving ROSC” value ([1]; tibial IO, N=7) was 1, the Cmax ([2]; IV (auricular vein) push, n=8) was 106 ng/mL and the Cmax ([2]; tibial IO push, n=7) was 58.7 ng/mL. For the same molecule, the Tmax ([2]; IV, n=8) was 1.43 min, the Tmax ([2]; tibial IO, n=7) was 2.63 min and the level at 1 min ([2]; IV, n=8) was 76.8 ng/mL. The level at 1 min ([2]; tibial IO, n=7) was 23.6 ng/mL and the “Cmax concentration of the IO group compared to the IV group” value ([2]; tibial IO relative to IV) was 55%.

From publication PMC4786250, “Effects of Intraosseous Tibial vs. Intravenous Vasopressin in a Hypovolemic Cardiac Arrest Model” (Western Journal of Emergency Medicine, 2016)
